The source of these data is article PMC8781960, “Structural Basis of 2-Phenylamino-4-phenoxyquinoline Derivatives as Potent HIV-1 Non-Nucleoside Reverse Transcriptase Inhibitors” (Molecules, 2022).

Data set [1] concerns MDA-MB-231 (hormone-independent breast cancer). Description: In vitro cytotoxicity (MTT). The procedure, abridged: (§1)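 Cells exposed to samples at various concentrations for 48 h; viability by MTT reduction, formazan dissolved in DMSO. Absorbance read at 550 nm with 650 nm reference.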
Another data set deals with S102 (Thai liver cancer). Description: In vitro cytotoxicity (MTT). The procedure, abridged:
as §1

Another data set has as its system HepG2 (hepatocarcinoma). Description: In vitro cytotoxicity (MTT). The procedure, abridged:
as §1

In data set [2] the test system is T47-D (hormone-dependent breast cancer). Description: In vitro cytotoxicity (MTT). An outline of the steps: as §1
Data set [3] has as its system HeLA (cervical carcinoma). Description: In vitro cytotoxicity (MTT). To be noted: Homo sapiens, HeLa, 48 h, read-out: IC50 HeLA. The procedure, abridged: as §1
The next data set has as its system A549 (lung carcinoma). Description: In vitro cytotoxicity (MTT). An outline of the steps: as §1
The subject of data set [4] is HuCCA-1 (cholangiocarcinoma). Put plainly: In vitro cytotoxicity (MTT). The procedure, abridged:
as §1

A further data set relates to HL-60 (promyeloblast). Put plainly: In vitro cytotoxicity (MTT). To be noted: Homo sapiens, HL-60, 48 h, read-out: IC50 HL-60. The procedure, abridged:
as §1

For a further data set, the target named is T1, HIV-1 RT (Human immunodeficiency virus type 1 group M subtype B, UniProt P03366).
T1 construct: The reaction mixture consisted of template/primer complex, 2′-deoxy-nucleotide-5′-triphosphates (dNTPs), and RT enzyme in lysis buffer; purchased Roche Applied Science, Mannheim, Germany
Also noted: method as in PMID 31698495. To be noted: 1 µM; previously reported values for 5a–5d; cited from earlier work.

For data set [5], the system named is MOLT-3 (acute lymphoblastic leukemia). Put plainly: In vitro cytotoxicity (XTT). Particulars: Homo sapiens, MOLT-3, 48 h, read-out: IC50 MOLT-3. A general note: Formazan colour is commonly taken as a measure of viable cells.
The subject of data set [6] is H69AR (lung cancer, multidrug resistant). Put plainly: In vitro cytotoxicity (MTT). The data set is classed as cell-based, human. Particulars: 48 h.
Procedure: Background control wells contained the same volume as the complete culture medium. […] The reagent was dissolved in phosphate-buffered saline at 5 mg/mL and filtered to sterilize and remove the small amount of insoluble residue present in some batches of MTT. […] Subsequently, dimethyl sulfoxide (100 µL; Merck, Germany) was added to dissolve the resulting formazan by sonication. The plates were read on a microplate reader (Molecular Devices, CA, USA) using a test wavelength of 550 nm and a reference wavelength of 650 nm.
Data set [7] relates to MRC-5 (normal embryonic lung cell). Put plainly: In vitro cytotoxicity (MTT), normal cell line. An outline of the steps:
as §1

The mark [8] stands for this setting: at 50 µg/mL, inactive (IC50 ≥ 50 µg/mL).

Marks after values point to notes of the source that are not given here.

As usually defined, the IC50 is the concentration at which inhibition is half-maximal. Usually melting point stands for the temperature of the solid-liquid transition. As to `Cc1cc(C#N)cc(C)c1Oc1cc(Nc2ccc(C#N)cc2)nc2ccccc12` [Compound 5d, 4-(2′,6′-Dimethyl-4′-cyanophenoxy)-2-(4″-cyanophenyl)-aminoquinoline], the melting point lay in the range of 256.5 to 257 °C. For the same molecule, the “%C percentage cytotoxicity MDA-MB-231” value in data set [1] (setting [8]) is on record as “%C = 14.9 ^c”. Also, in the data set with S102 (Thai liver cancer) (setting [8]), the “%C percentage cytotoxicity S102” value is on record as “%C = 0.0 ^c”. In the data set on HepG2 (hepatocarcinoma) (setting [8]), the “%C percentage cytotoxicity HepG2” value was “%C = 38.2 ^c”. For the same molecule, in [2] (setting [8]), the “%C percentage cytotoxicity T47-D” value was “%C = 24.0 ^c”. Moreover, the IC50 in data set [3] stood at 83.4 ± 5.7 µM. The “%C percentage cytotoxicity A549” value in the data set on A549 (lung carcinoma) (setting [8]) is on record as “%C = 21.0 ^c”. For the same molecule, the “%C percentage cytotoxicity HuCCA-1” value in data set [4] (setting [8]) is “%C = 3.0 ^c”. In addition, the IC50 in the data set on HL-60 (promyeloblast) is 33.4 ± 1.7 µM. The “Inhibitory activities (%) against HIV-1 RT” value at HIV-1 RT is 27.8 ± 3.1%. In addition, in [5], the IC50 worked out at 48.8 ± 41 µM. In addition, in data set [6] (human, 50 µg/mL), the “%C percentage cytotoxicity H69AR” value is on record as “%C = 0.0 ^c”. The “%C percentage cytotoxicity MRC-5” value in data set [7] (normal cell line, at 50 µg/mL, inactive (IC50 ≥ 50 µg/mL)) was “%C = 7.4 ^c”.

Turning to `Cc1cc(C=O)cc(C)c1Oc1cc(Nc2ccc(C#N)cc2)nc2ccccc12` [Compound 5b, 4-(2′,6′-Dimethyl-4′-formylphenoxy)-2-(4″-cyanophenyl)-aminoquinoline], the melting point is 291.3 to 292.2 °C. Besides, in data set [1] (Homo sapiens, MDA-MB-231, 48 h, read-out: IC50 MDA-MB-231), the IC50 was determined as 15.9 ± 0.4 µM. The IC50 in the data set on S102 (Thai liver cancer) (Homo sapiens, 48 h, read-out: IC50 S102) stood at 74 ± 5.3 µM. Also, the IC50 in the data set with HepG2 (hepatocarcinoma) (Homo sapiens, HepG2, 48 h, read-out: IC50 HepG2) was found to be 65.9 ± 6.1 µM. For the same molecule, the half-inhibitory concentration (IC50) in [2] (Homo sapiens, T47D, 48 h, read-out: IC50 T47-D) stood at 22.9 ± 0.9 µM. The IC50 in data set [3] turned out to be 3.9 ± 0.6 µM. Also, the IC50 in the data set with A549 (lung carcinoma) (Homo sapiens, A549, 48 h, read-out: IC50 A549) amounted to 51.2 ± 3 µM. Moreover, the IC50 in data set [4] (Homo sapiens, HuCC-A1, 48 h, read-out: IC50 HuCCA-1) was 29.4 ± 2 µM. Further, the IC50 in the data set with HL-60 (promyeloblast) stood at 4.5 ± 0.2 µM. Besides, on HIV-1 RT, the “Inhibitory activities (%) against HIV-1 RT” value is reported as 34.0 ± 2.5%. For the same molecule, the IC50 in [5] is 11.8 ± 1.6 µM. In [6] (Homo sapiens, H69AR, mean ± standard error), this molecule returned an IC50 of 27.6 ± 3.4 µM. Besides, in data set [7] (Homo sapiens, MRC5, 48 h, read-out: IC50 MRC-5), the IC50 was determined as 69.8 ± 4.3 µM.
